Measurements: patent US8710252B2, “Hepodxilin analog enantiomers” (priority 2006, dated 2014)
Entries after “also recorded” stand apart in the source; their conditions may differ.

Legend:
[1] = target: T1, Ga14-DBD-PPAR gamma-LBD fusion protein (Homo sapiens, UniProt P37231); assay: PPAR gamma transactivation assay (Gal4-PPAR gamma LBD / UASx4-TK-luc reporter); assay type: cell-based
T1 construct: expressed in transfected cells; host or cells: mouse embryonic fibroblasts (MEFs) or ME3 cells
T1 sequence (P37231 238-503 limits assumed): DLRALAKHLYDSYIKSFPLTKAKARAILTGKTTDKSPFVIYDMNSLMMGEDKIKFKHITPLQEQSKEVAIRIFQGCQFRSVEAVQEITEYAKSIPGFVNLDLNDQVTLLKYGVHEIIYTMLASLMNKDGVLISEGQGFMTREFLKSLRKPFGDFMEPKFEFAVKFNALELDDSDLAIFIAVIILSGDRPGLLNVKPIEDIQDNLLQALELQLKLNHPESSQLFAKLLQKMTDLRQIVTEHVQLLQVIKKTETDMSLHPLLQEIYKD
Excerpt: The UASx4-TK-luc reporter construct (where UAS refers to “upstream activator sequence”) contains four Ga14-responsive elements. The plasmid Ga14-PPAR gammaLBD encodes a Ga14-DBD-PPAR gamma-LBD fusion protein (i.e. the DNA-binding domain, DBD, of Ga14 fused to the ligand-binding domain, LBD, of PPAR gamma) capable of transactivating the UASx4-TK-luc reporter plasmid by binding to the UAS. The CMV-beta-galactosidase plasmid (where CMV is cytomegalovirus) was used for normalization of experimental values.
The cells were replated, typically in 24 well plates, so that at the time of transfection the cells were 50-70% confluent.
Briefly, per well in a 24 well plate, UASx4TKIuc (0.2 microg) Ga14-PPAR gammaLBD (or pM-hPPAR gamma-LBD; 0.1 microg) and CMV-beta-galactosidase (0.05 microg) in 30 μL DMEM (free of serum and antibiotics) was mixed with 30 microL DMEM (free of serum and antibiotics) containing 1 microL metafectenein. The mixture was incubated at room temperature for 20 min to allow formation of nucleic acid-lipid complexes and then approximately 60 micros was added to each well containing the 50-70% confluent cells. […] Cells were harvested after 12-24 hours and luciferase and beta-galactosidase activities were measured according to standard protocols.
Each experiment was carried out with triplicate samples with 0.1, 1 or 10 microM racemate or purified enantiomer.

[2] = tested on: Caspase-3 cleavage in K562 cells; assay: Caspase-3 cleavage in K562 cells, Western blot; assay type: cell-based, human; conditions: 10 uM, 6 h, FIG. 7
Method: Cell culture: Human leukemia K562 cells, obtained from ATCC (American Type Culture Collection), were maintained in RPMI 1640 medium containing 100 units/ml penicillin G, 100 μg/ml streptomycin, 10% (v/v) fetal calf serum in a humidified atmosphere with 5% CO2 at 37° C. The ability of the cells to exclude trypan Blue dye was used to assess cell viability.
Cell treatment: K562 cells were stored in 0.5% FBS for 15 min before the experiment. The cells, 6×10^5, were treated with DMSO as vehicle, or with PBT-3, PBT-4, or compounds A, B, C and D at 10 uM/dish (8 ml). Gleevec™ (STI) was used at 5 μM/dish. All experiments were without FBS and treatment lasted 6 h at 37° C. Treatment was terminated by washing the cells with ice-cold PBS buffer by centrifugation at 500×g for 5 min. Cells were lysed in buffer containing 20 mM Tris-HCl buffer, pH 7.4, 150 NaCl, 1 mM EDTA, 1 mM EGTA, 1% Triton X-100 2.5 mM sodium pyrophosphate, 1 mM beta-glycerophosphate, 1 mM sodium orthovanadate, 1 mM PMSF and 1 μM leupeptin/1 μM Aprotinin/1 μM pepstain A, on ice for 30 min. The lysates were clarified by centrifugation at 15,000×g for 15 min at 4° C. Lysates were subjected to protein assay (BCA, Pierce) and kept at −80° C.
Western blot: Thirty micrograms of protein from each sample were taken, and SDS-PAGE sample loading buffer was added. The mixture was boiled for 5 min. After centrifugation, the samples were loaded onto 15% SDS-PAGE gel and the gel was run (BioRad Protein II) for 2-3 h at 20 mA. The protein was transferred to a Trans-blot Nitrocellulose membrane (Millipore). Protein bands on the membranes were checked visually with Ponceau S-staining to ensure equivalent protein load/transfer comparing different samples. Membranes were blocked with 5% non-fat dry milk in PBS containing 0.5% Tween-20 for 1 h at room temperature, and then incubated with 1:1000 dilution of anti-caspase-3 antibody (BD Transduction Laboratories, Mississauga, Canada) overnight at 4° C. Secondary antibody of horseradish peroxidase anti-mouse antibody was used at 1:2000 dilution. Bound antibodies were detected by using enhanced chemilluminescence (ECL kit, Amersham Pharmacia Biotech) and the membranes were exposed to Hyper film for ECL detection. The same membrane was stripped by placing in buffer containing 62.5 mM Tris-HCl, pH 6.8/2% SDS/100 mM beta-mercaptoethanol at 50° C. for 30 min. The membrane was washed 3 times with PBS containing 0.5% Tween-20. The membrane was blocked by PBS buffer containing 0.5% Tween-20 and 5% skim milk. The anti-tubulin antibody (Santa Cruz, Calif.) was diluted 1:1000 and membrane analyzed by ECL as described above.

[3] = tested on: washed human platelets; assay: I-BOP evoked human platelet aggregation in vitro with washed platelets; assay type: cell-based; conditions: washed human platelets, 5 ng I-BOP; compounds are methyl esters; read-out: IC50, inhibition of I-BOP evoked human platelet aggregation
Method: Washed human platelets were prepared as previously described (Pace-Asciak et al., 2002). The aggregation of platelets was carried out in a conventional 4-well aggregometer with stirring of the suspension maintained at 37° C. The platelet suspension was caused to aggregate with a thromboxane stable analog, I-BOP. The isolated enantiomer compounds and their respective racemates, PBT-3 and PBT-4, were added at various concentrations to cuvettes containing 375×10^6 platelets/ml, 1 min prior to the addition of 5 ng I-BOP (Cayman Chemicals, Ann Arbor, Mich.). Aggregation was monitored for an additional 5 min.

[4] = tested on: human leukemic K562 cells; assay: Inhibition of 3H-methyl thymidine incorporation (cell proliferation) in K562 cells; assay type: cell-based
Method: The human leukemic K562 cell line was established as previously reported (Qiao et al., 2003). Cells were maintained as suspension cultures in RPMI 1640 medium supplemented with 100 1.1/ml penicillin G, 100 μg/ml streptomycin, 10% (v/v) […] in a humidified atmosphere of 5% CO2 at 37° C. Cell viability was assessed by the exclusion of Trypan blue. Incorporation of ^3H-methyl thymidine into cell DNA was used as an assay for cell proliferation. Cells ([…]) were starved for 12 h, and were subsequently treated with the test compounds. Compounds A, B, C and D were made up at various concentrations in DMSO ([…] A, B, C and D. Concentrations were doubled for racemates PBT-3 and PBT-4) and 1 of these solutions was added/ml volume of cells. Cells were suspended in RPMI 1640 medium. At 6 h post-treatment at 37° C. the cells were fixed and denatured essentially as described in Qiao et al. (2003), harvested and passed through Whatman GF/C glass filters. The filters were washed and counted for radioactivity.

Row | PPAR Activation as % of positive control (Avandia) ([1]; 10 microM racemate, Table 3) | PPAR gamma transactivation, result in words [1] | IC50 [3] [nM] | IC50 ([4]; 6 h treatment, compounds are methyl esters) [nM] | PPAR Activation as % of positive control (Avandia) ([1]; Experiment 1, 0.1 microM) | PPAR Activation as % of positive control (Avandia) ([1]; Experiment 1, 1 microM) | PPAR Activation as % of positive control (Avandia) ([1]; Experiment 1, 10 microM) | PPAR Activation as % of positive control (Avandia) ([1]; Experiment 2, 0.1 microM) | PPAR Activation as % of positive control (Avandia) ([1]; Experiment 2, 1 microM) | PPAR Activation as % of positive control (Avandia) ([1]; Experiment 2, 10 microM) | PPAR Activation as % of positive control (Avandia) ([1]; Experiment 3, 0.1 microM) | PPAR Activation as % of positive control (Avandia) ([1]; Experiment 3, 1 microM) | Structure (SMILES) | Cleavage of caspase-3 [2] | Activity relative to Compound D, cell proliferation assay [4] [fold] | PPAR Activation as % of positive control (Avandia) ([1]; Experiment 3, 10 microM)
1 | 27 +/− 5 % of positive control (Avandia) |  |  |  |  |  |  |  |  |  |  |  | CCCCC/C=C\CC1CC1/C=C/C(O)C/C=C\CCCC(=O)OC (centres unmarked) [PBT-2, 8-hydroxy-11,12-cyclopropyl-eicosa-5Z,9E,14Z-trienoic acid methyl ester, reference compound] |  |  | 
2 | 14 +/− 4 % of positive control (Avandia) | active |  |  |  |  |  |  |  |  |  |  | CCCCC/C=C\CC1CC1C(O)/C=C\C/C=C\CCCC(=O)O (centres unmarked) [PBT-03, 10-hydroxy-11,12-cyclopropyl-eicosa-5Z,8Z,14Z-trienoic acid, reference compound] |  |  | 
3 | 16 +/− 4 % of positive control (Avandia) | active |  |  |  |  |  |  |  |  |  |  | CCCCC/C=C\CC1CC1/C=C/C(O)C/C=C\CCCC(=O)O (centres unmarked) [PBT-01, 8-hydroxy-11,12-cyclopropyl-eicosa-5Z,9E,14Z-trienoic acid, reference compound] |  |  | 
4 |  |  | 60 ± 12 | 4000 | 14 +/− 4 % of positive control (Avandia) | 16 +/− 3 % of positive control (Avandia) | 38 +/− 8 % of positive control (Avandia) | 4 +/− 1 % of positive control (Avandia) | 6 +/− 1 % of positive control (Avandia) | 14 +/− 1 % of positive control (Avandia) | 9 +/− 3 % of positive control (Avandia) | 7 +/− 1 % of positive control (Avandia) | CCCCC/C=C\CC1CC1C(O)/C=C\C/C=C\CCCC(=O)OC (stereo not drawn) [Compound C, 10R-hydroxy-11R,12R-cyclopropyl-eicosa-5Z,8Z,14Z-trienoic acid methyl ester] | increased cleavage of caspase-3 | 1.3 | 17 +/− 3 % of positive control (Avandia)
5 | 17 +/− 2 % of positive control (Avandia) | active |  |  |  |  |  |  |  |  |  |  | CCCCC/C=C\CC1CC1/C=C/C(O)C/C=C\CCCC(=O)O (centres unmarked) [PBT-02, 8-hydroxy-11,12-cyclopropyl-eicosa-5Z,9E,14Z-trienoic acid, reference compound] |  |  | 
6 |  |  |  |  | 5 +/− 1 % of positive control (Avandia) | 11 +/− 1 % of positive control (Avandia) | 55 +/− 8 % of positive control (Avandia) | 4 +/− 1 % of positive control (Avandia) | 4 +/− 1 % of positive control (Avandia) | 14 +/− 2 % of positive control (Avandia) | 7 +/− 3 % of positive control (Avandia) | 11 +/− 2 % of positive control (Avandia) | CCCCC/C=C\CC1CC1/C=C/C(O)C/C=C\CCCC(=O)OC (stereo not drawn) [Compound E, 8R-hydroxy-11S,12S-cyclopropyl-eicosa-5Z,9E,14Z-trienoic acid methyl ester] |  |  | 27 +/− 7 % of positive control (Avandia)
7 | 21 +/− 2 % of positive control (Avandia) |  |  |  | 17 +/− 2 % of positive control (Avandia) | 57 +/− 6 % of positive control (Avandia) |  | 7 +/− 1 % of positive control (Avandia) | 35 +/− 5 % of positive control (Avandia) |  | 6 +/− 2 % of positive control (Avandia) | 34 +/− 2 % of positive control (Avandia) | CCCCC/C=C\CC1CC1/C=C/C(O)C/C=C\CCCC(=O)OC (centres unmarked) [PBT-1, 8-hydroxy-11,12-cyclopropyl-eicosa-5Z,9E,14Z-trienoic acid methyl ester, reference compound] |  |  | 58 +/− 12 % of positive control (Avandia)

Row | Structure (SMILES) | PPAR Activation as % of positive control (Avandia) ([1]; 10 microM racemate, Table 3) | PPAR gamma transactivation, result in words [1] | IC50 [3] [nM] | IC50 ([4]; 6 h treatment, compounds are methyl esters) [nM] | PPAR Activation as % of positive control (Avandia) ([1]; Experiment 1, 0.1 microM) | PPAR Activation as % of positive control (Avandia) ([1]; Experiment 1, 1 microM) | PPAR Activation as % of positive control (Avandia) ([1]; Experiment 1, 10 microM) | PPAR Activation as % of positive control (Avandia) ([1]; Experiment 2, 0.1 microM) | PPAR Activation as % of positive control (Avandia) ([1]; Experiment 2, 1 microM) | PPAR Activation as % of positive control (Avandia) ([1]; Experiment 2, 10 microM) | PPAR Activation as % of positive control (Avandia) ([1]; Experiment 3, 0.1 microM) | PPAR Activation as % of positive control (Avandia) ([1]; Experiment 3, 1 microM) | Cleavage of caspase-3 [2] | Activity relative to Compound D, cell proliferation assay [4] [fold] | PPAR Activation as % of positive control (Avandia) ([1]; Experiment 3, 10 microM)
8 | CCCCC/C=C\C[C@@H]1C[C@H]1/C=C/[C@@H](O)C/C=C\CCCC(=O)OC [Compound F, 8S-hydroxy-11R,12R-cyclopropyl-eicosa-5Z,9E,14Z-trienoic acid methyl ester] |  | significantly more activity than Compound E or the racemic mixture of PBT-1; also recorded: significantly better PPAR gamma transactivation activity; also recorded: higher fold PPAR gamma transactivation than compound E or the PBT-1 racemic mixture |  |  | 7 +/− 1 % of positive control (Avandia) | 12 +/− 7 % of positive control (Avandia) | 92 +/− 7 % of positive control (Avandia) | 5 +/− 1 % of positive control (Avandia) | 5 +/− 5 % of positive control (Avandia) | 69 +/− 12 % of positive control (Avandia) | 8 +/− 2 % of positive control (Avandia) | 18 +/− 5 % of positive control (Avandia) |  |  | 78 +/− 34 % of positive control (Avandia)
